Assay results reported in patent EP4759810A1, “PROTAC TARGETING BCL-XL PROTEIN AND USE THEREOF” (BEIJING SUNCELL BIO-MEDICAL CO., LTD., priority 2023, dated 2025).
Read-outs that look alike come from different tables or passages of the source.

What was measured:
Molt-4 cells [1] = test: Molt-4 cell killing activity test (CCK-8); assay type: cell-based; conditions: for EC50: Homo sapiens; for killing Molt-4 cells at different concentrations (Figure 1), in words: 0.001-3 µM, comparison with control molecules
Method: Molt-4 cells were cultured and amplified in 10 cm dishes by using RPMI-1640 medium supplemented with 10% fetal bovine serum. Actively growing and healthy Molt-4 cells were collected, centrifuged at 1000 rpm for 5 minutes, and after removing the supernatant, the cells were resuspended in fresh RPMI-1640 medium containing 10% fetal bovine serum. Cell counting was then performed. The cell density was adjusted to 120,000 cells per milliliter, and 100 µL of the cell suspension was added to each well of a 96-well transparent cell culture plate. It was noted that the edge wells of the 96-well plate were not used for testing; and 300 µL of PBS alone was added to these wells to reduce medium evaporation.
The small molecule compounds to be tested for activity were prepared. A series of small molecule concentration gradients (0.001, 0.003, 0.01, 0.03, 0.1, 0.3, 1, and 3 µM) were pre-set, and a series of 2× drug dilutions for the above concentrations were prepared in RPMI-1640 medium containing 10% fetal bovine serum. 100 µL of the above medium containing the gradient concentrations of the drug was added to each well of a 96-well plate pre-seeded with cells, so that the final drug concentration in each well was the pre-set concentration gradient. Three replicate wells were used for each tested drug concentration. The 96-well plate was placed back in a 37°C incubator, and the cell viability was measured after three days.
The plate was taken out three days after adding the drugs, and 100 µL of pre-prepared CCK-8 working solution was added to each well. The CCK-8 working solution was obtained through diluting a CCK-8 stock solution (C0041, Beyotime) by 10-fold volumn with a serum-free RPMI-1640 medium. The 96-well plates with the added CCK-8 working solution were placed back in the 37°C incubator and incubated for 0.5-2 hours. The plates were then taken out, and the absorbance value (OD value) of each well was measured at a wavelength of 450 nm, and the cell viability in each experimental group was calculated according to the following formula: Relative cell viability (%) = […] × 100%.

Bcl-xL protein = target: T1, Bcl-xL protein (Homo sapiens, UniProt Q07817); test: Degradation experiment of Bcl-xL target protein (Western blot in Molt-4 cells); assay type: cell-based; conditions: 100 nM, 0, 2, 6, 16 h, GAPDH internal control, Figure 4
T1 construct: host or cells: Molt-4 cells
T1 sequence (Q07817 whole entry): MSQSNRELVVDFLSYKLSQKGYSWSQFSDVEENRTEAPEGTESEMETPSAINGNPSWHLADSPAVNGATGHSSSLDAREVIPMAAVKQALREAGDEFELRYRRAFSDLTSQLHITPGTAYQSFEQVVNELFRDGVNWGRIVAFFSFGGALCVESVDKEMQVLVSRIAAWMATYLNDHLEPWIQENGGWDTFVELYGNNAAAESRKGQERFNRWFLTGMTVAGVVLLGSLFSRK
Method: Actively growing and healthy Molt-4 cells were subcultured into a fresh RPMI-1640 medium containing 10% fetal bovine serum, and each PROTAC molecule was added thereto at a final concentration of 100 nM. After drug treatment for the specified times (0, 2, 6, and 16 hours), the cells were collected, the supernatant was discarded by centrifugation, and the cells were washed twice with pre-cooled PBS buffer. Total protein was extracted with a lysis buffer (Servicebio, G2002-100ML), and the protein concentration was normalized by using a BCA protein quantification kit (Servicebio, G2026). Protein samples were mixed with a protein-loading buffer and incubated at 95°C for 5 minutes. Western blotting experiments were performed by using the following antibodies: Bcl-xL (Abcam, catalog number ab32370), diluted at 1:500; GAPDH antibody (Servicebio, catalog number GB15004), diluted at 1:1000; and horseradish peroxidase-conjugated goat anti-rabbit secondary antibody (Servicebio, catalog number GB23303), diluted at 1:5000.

Molt-4 cells [2] = test: Detection of E3 enzyme-dependence: Molt-4 cell killing with or without pomalidomide (CCK-8); assay type: cell-based; conditions: 10 µM pomalidomide, Figure 2
Method: Actively growing and healthy Molt-4 cells were collected, centrifuged at 1000 rpm for 5 minutes, and after removing the supernatant, the cells were resuspended in fresh RPMI-1640 medium containing 10% fetal bovine serum. Cell counting was then performed. The cell density was adjusted to 120,000 cells per milliliter, and 100 µL of the cell suspension was added to each well of a 96-well transparent cell culture plate. It was noted that the edge wells of the 96-well plate were not used for testing, and 300 µL of PBS alone was added to these wells to reduce medium evaporation.
Molt-4 cells were plated in duplicate according to the number of the tested small molecules, so as to test the effects with and without the addition of pomalidomide (a competitive ligand specific for E3 ligase), in which one half of the parallel cells was added 10 µM pomalidomide. A series of small molecule concentration gradients (0.001, 0.003, 0.01, 0.03, 0.1, 0.3, 1, and 3 µM) were pre-set, and a series of 2× drug dilutions for the above concentrated were prepared in DMEM medium containing 10% fetal bovine serum. 100 µL of the above DMEM medium containing the gradient concentrations of the drug was added to 96-well plates that have been pre-plated with cells, so that the final drug concentration in each well was the pre-set series of concentrations respectively. Three replicate wells were used for each test drug concentration. The 96-well plates were placed back in a 37°C incubator, and the cell viability was detected after three days.
Cell viability after drug treatment was detected by using the CCK-8 method: three days after adding the drugs, the plates were taken out, and the supernatant was discarded. Then, 100 µL of pre-prepared CCK-8 working solution was added to each well. The CCK-8 working solution was obtained through diluting a CCK-8 stock solution (C0041, Beyotime) by 10-fold volumn with a serum-free DMEM culture medium. The 96-well plates with the added CCK-8 working solution were placed back in the 37°C incubator and incubated for 0.5-2 hours. The plates were then taken out, and the absorbance value (OD value) of each well was measured at a wavelength of 450 nm. The cell viability in each experimental group was calculated according to the following formula: Relative cell viability (%) = (Blank control group - Experimental group) / Blank control group × 100%.

HEF cells = test: Senescent cell killing activity test, HEF cell model (CCK-8); assay type: cell-based, human
Method: To avoid replication of the induced senescent cells, low-passage proliferating HEF cells (<10 passages), MRC5 cells (<6 passages), and BJ cells (<10 passages) were used as normal controls. For chemical drug induced senescence, HEF cells were treated with 10 µM etoposide (Selleck, S1225) for 36-48 hours, MRC5 cells were treated with 5 µM bleomycin (Selleck, S1225) for 72 hours, and BJ cells were treated with 10 µg/mL bleomycin for 72 hours. Three days after the treatment, the cells were subcultured in fresh culture medium at a 1:3 ratio for 72 hours before further analysis and use.
Non-senescent and induced-senescent HEF cells, non-senescent and induced-senescent MRC5 cells, and non-senescent and induced-senescent BJ cells were respectively digested with trypsin, and centrifuged at 1000 rpm for 5 minutes. Then, the supernatant was removed, and the cells were resuspended in fresh DMEM culture medium containing 10% fetal bovine serum for counting. The cell density was adjusted so that the non-senescent cell density was 4000 cells/100 µL and the senescent cell density was 7000 cells/100 µL. 100 µL of the cell suspension was added to each well of a 96-well transparent cell culture plate. It was noted that the edge wells of the 96-well plate were not used as testing wells, and 300 µL of PBS alone was added to these wells to reduce evaporation of the culture medium. The 96-well plates with the well-plated cells were placed back in a 37°C incubator for overnight culture until the cells adhered. On the next day, the small molecule compounds to be tested were prepared and added after the cells had adhered.
A series of small molecule concentration gradients (0.01, 0.03, 0.1, 0.3, 1, 3, 10, and 25 µM) were pre-set, and a series of 2× drug dilutions for the above concentrations were prepared in DMEM culture medium containing 10% fetal bovine serum. 100 µL of the above DMEM culture medium containing the gradient concentrations of the drug was added to each well of the 96-well plate that had been well-plated with cells, so that the final drug concentration in each well was the pre-set series of concentrations. Three replicate wells were used for each test drug concentration. The 96-well plates were placed back in a 37°C incubator, and cell viability was measured after three days.
Three days after adding the drug, the plates were taken out, and the supernatant was discarded. 100 µL of pre-prepared CCK-8 working solution was added to each well. The CCK-8 working solution was obtained through diluting a CCK-8 stock solution (C0041, Beyotime) with a serum-free DMEM culture medium by 10-fold volumn. The 96-well plates containing the CCK-8 working solution were placed back in the 37°C incubator and incubated for 0.5-2 hours. The plates were then taken out, and the absorbance value (OD value) of each well was measured at a wavelength of 450 nm. The cell viability in each experimental group was calculated according to the following formula: Relative cell viability (%) = (Blank control group - Experimental group) / Blank control group × 100%.

[3] = 72 h, Molt-4 cells, three days, CCK-8, read-out: EC50 (Molt-4)
[4] = Bcl-xL-positive Molt-4 cells, read-out: cellular activity / killing activity (Molt-4 cells)

Structure (SMILES) | EC50 (Molt-4 cells [1]; [3]) | degradation of the Bcl-xL protein (Bcl-xL protein) | EC50 (Molt-4 cells [1]; [4]) | killing Molt-4 cells at different concentrations (Figure 1), in words (Molt-4 cells [1]) | cell killing activity after addition of pomalidomide (+poma) compared to without (-poma) (Molt-4 cells [2]) | killing senescent HEF cells (HEF cells; etoposide-induced senescent vs normal HEF cells, Figures 3A-3F) | toxicity on normal non-senescent HEF cells (HEF cells; higher concentration (25 µM))
Cc1ncsc1-c1ccc([C@H](C)NC(=O)[C@@H]2C[C@@H](O)CN2C(=O)[C@@H](NC(=O)CN2CCN(CC#Cc3ccc(OCCCc4ccc(N5CCc6cccc(C(=O)Nc7nc8ccccc8s7)c6C5)nc4C(=O)O)c(F)c3)CC2)C(C)(C)C)cc1 [APH1] | 0.01 to 0.1 µM | had the ability to degrade the Bcl-xL protein |  |  |  |  | 
Cc1cc([C@H](C(=O)N2C[C@H](O)C[C@H]2C(=O)N[C@@H](CC(=O)N2CCC(CN3CCN(CC#Cc4ccc(OCCCc5ccc(N6CCc7cccc(C(=O)Nc8nc9ccccc9s8)c7C6)nc5C(=O)O)c(F)c4)CC3)CC2)c2ccc(-c3scnc3C)cc2)C(C)C)on1 [APH7] | 0.01 to 0.1 µM | had the ability to degrade the Bcl-xL protein |  |  |  |  | 
Cc1cc([C@H](C(=O)N2C[C@H](O)C[C@H]2C(=O)N[C@@H](CC(=O)N2CCC(CCN3CCN(CC#Cc4ccc(OCCCc5ccc(N6CCc7cccc(C(=O)Nc8nc9ccccc9s8)c7C6)nc5C(=O)O)c(F)c4)CC3)CC2)c2ccc(Cl)cc2)C(C)C)on1 [APH105] | < 0.01 µM | had the ability to degrade the Bcl-xL protein | < 0.01 µM |  |  |  | 
CC(C)(C)[C@H](NC(=O)C1(F)CC1)C(=O)N1C[C@H](O)C[C@H]1C(=O)N[C@@H](CC(=O)N1CCC(CCN2CCN(CC#Cc3ccc(OCCCc4ccc(N5CCc6cccc(C(=O)Nc7nc8ccccc8s7)c6C5)nc4C(=O)O)c(F)c3)CC2)CC1)c1ccc(Cl)cc1 [APH106] | 0.01 to 0.1 µM | had the ability to degrade the Bcl-xL protein |  |  |  |  | 
CS(=O)(=O)NC(=O)c1nc(N2CCc3cccc(C(=O)Nc4nc5ccccc5s4)c3C2)ccc1CCCOc1ccc(C#CCN2CCN(CC3CCN(c4ccc(N5CCC(=O)NC5=O)cc4)CC3)CC2)cc1F [APQ10-2] | < 0.01 µM | had the ability to degrade the Bcl-xL protein | < 0.01 µM | comparable to A-1331852 | significantly reduced cell killing activity |  | 
O=C1CCN(c2cc(F)c(N3CCN(CC#Cc4ccc(OCCCc5ccc(N6CCc7cccc(C(=O)Nc8nc9ccccc9s8)c7C6)nc5C(=O)O)c(F)c4)CC3)cc2F)C(=O)N1 [APQ904] | < 0.01 µM | had the ability to degrade the Bcl-xL protein | < 0.01 µM | comparable to A-1331852 | significantly reduced cell killing activity |  | 
O=C1CCC(N2C(=O)c3cccc(NCCOCCOCCOCCOCCN4CCN(CC#Cc5ccc(OCCCc6ccc(N7CCc8cccc(C(=O)Nc9nc%10ccccc%10s9)c8C7)nc6C(=O)O)c(F)c5)CC4)c3C2=O)C(=O)N1 (stereo not drawn) [BF4] | 0.01 to 0.1 µM | had the ability to degrade the Bcl-xL protein |  |  | significantly reduced cell killing activity | efficiently and selectively kill senescent HEF cells | no toxicity on normal non-senescent HEF cells
